Assay results published in patent publication US20080318892A1, “METHODS AND FORMULATIONS FOR PROTECTING CELLS, AND FOR TREATING DISEASES AND CONDITIONS BY OPTIMIZING THE INTRACELLULAR CONCENTRATION OF NAD” (priority 2007, published 2008).

Key:
[1] = system: fibroblasts derived from a subject with HGPS; assay: Replicative lifespan of HGPS fibroblasts; format: cell-based, human; conditions: HGPS fibroblasts transduced with Nampt cDNA
Description: Cell Culture. Experiments were performed using primary human vascular SMCs derived by outgrowth from fragments of internal thoracic artery and the HITC6 SMC clonal line, also originally generated from the human internal thoracic artery (Li, 2001). Derman fibroblasts from an individual with Hutchinson-Gilford Progeria Syndrome (HGPS) were obtained from Coreill Cell Repository.
To quantify replication, cells were plated at 4500 cells/cm^2 and growth medium with 10% FBS was changed every two days until cells reached 90-95% confluence. Harvested cells were counted from triplicate plates and the number of population doublings was calculated based on: [log10(number of cells harvested)−log10(number of cells seeded)]/[…] (Fukuhara, 2005). Population growth curves were compared using both nonlinear regression and two-way analysis of variance.

HITC6 SMCs = assay: Senescence-associated beta-galactosidase activity / senescence-free survival; format: cell-based, human
Description: Senescence-associated β-Galatosidase Activity Assay. SMCs on glass coverslips at approximately 70% confluence were fixed in 2% formaldehyde/0.2% glutaraldehyde in PBS for 3 minutes and incubated with X-gal-containing reaction mixture, as previously described (Dimri, 1995). Washed cells were stained with Hoechst 33258 (2.5 μg/ml) and the proportion of senescence-associated β-galactosidase (SA β-Gal)-positive cells quantified from 10 microscope fields of view (Olympus BX51, ×20 objective, approximately 1200 cells). Senescence-free survival was determined using Kaplan-Meier analysis of survival vs. replicative age.
Senescence-associated Beta-galactosidase Activity. Senescence-associated beta-galactosidase (SA-β-gal) activity was determined as previously described (Dimri et al, 1995). Briefly, SMCs were fixed in PBS containing 2% formaldehyde/0.2% glutaraldehyde for 3 min at room temperature. Fixed cells were then incubated for 4-6 h at 37° C. with SA-β-gal stain solution containing 150 mM NaCl, 2 mM MgCl, 40 mM citrate, 5 mM potassium ferrocyanide, 5 mM potassium ferricyanide, and 1 mg/ml of 5-bromo-4-chloro-3-indolyl-β-D-galactopyranoside (X-gal) (Invitrogen, Carlsbad, Calif., USA), at pH 6.0. SMCs were counterstained with 2.5 μg/ml Hoechst 33258 to detect cell nuclei. The proportion of SA-β-gal activity positive cells was quantified using light and fluorescence microscopy (Olympus BX51, Center Valley, Pa., USA).

HITB5 SMC's = assay: Apoptosis by TUNEL; format: cell-based, human; conditions: PBEF-overexpressing HITB5 SMCs; p<0.01
Description: Cell Proliferation, DNA Synthesis, and Apoptosis were also evaluated. To assess SMC proliferation, cells were plated at a density of 3000 cells per cm^2 and cultured in M199 containing 5% FBS. Triplicate wells were harvested at the designated times and counted using a hemacytometer. To quantify DNA synthesis, cells in log-phase growth were incubated for 12 hours with [^3H]thymidine (10 μCi/mL) and TCA-precipitable counts determined as described (5). Thymidine incorporation was expressed relative to DNA content, quantified by spectrofluorimetry of an aliquot of cell lysate incubated with 500 μg/ml Hoechst 33258. Apoptosis was assessed in SMCs seeded on glass coverslips by in situ end-labeling of DNA fragments using terminal deoxynucleotide transferase and fluorescein 12-dUTP (Promega) (5). Cells were fixed with 4% paraformaldehyde and counterstained with Hoechst 33258.

[2] = system: microvessels invested by human SMC's; assay: Human-mouse chimeric angiogenesis in vivo (matrigel implants); parameters: species or system SCID mice; conditions: matrigel implants with PBEF-overexpressing SMC's, 8 days; p<0.05 vs vector
Description: Human-Mouse Chimeric Angiogenesis in vivo was measured. HITC6 SMCs in M199 with 10% FBS and fibroblast growth factor-2 (FGF-2) were mixed with an equal volume of growth factor-reduced matrigel (BD Discovery Labware) yielding final concentrations of 5×10^5 cells/ml and 250 ng/ml FGF-2. The cell-matrigel suspension (500 μl) was subcutaneously injected into the abdomen of mice with severe combined immunodeficiency syndrome (SCID). After 8 days, implants were harvested, fixed for 8 h in Tris-buffered zinc (32), and paraffin-embedded tissues were sectioned at 5 μm. […] Tissue was then incubated with rabbit anti-GFP (1:200, BD Clontech, Palo Alto, Calif.) and bound primary antibody detected with alkaline phosphatase-conjugated goat anti-rabbit secondary antibody and visualized with red alkaline phosphatase substrate (Vector). […]
Human-Mouse Chimeric Angiogenesis in vivo was measured. […] Tissue was then incubated with rabbit anti-GFP (1:200, BD Clontech, Palo Alto, Calif.) and bound primary antibody detected with alkaline phosphatase-conjugated goat anti-rabbit secondary antibody and visualized with red alkaline phosphatase substrate (Vector). […]

HDAC = assay: Histone deacetylase (HDAC) assay in SMC lysates with [3H]-acetylated histone H4 peptide; format: biochemical, human; conditions: HITC6-PBEF SMC lysates, vehicle
Description: HITC6 SMC's were stably transduced with pQXCIP-PURO or pQXCIP-PBEF-PURO and HDAC activity determined in cell lysates (25 μg of protein), using [^3H]histone H4 peptide as the substrate. The reactions were quenched by acid hydrolysis and catalytically released [^3H]-acetate was extracted in ethyl acetate.
Histone Deacetylase (HDAC) Assays were employed. Histone H4 peptide (Upstate) was labeled with [^3H]-acetyl Coenzyme A (ICN) using PCAF histone acetylase. Cell lysates were harvested using Passive Lysis Buffer (Promega) and 25 μg of protein was incubated at 37° C. for 6 hours with 50,000 cpm of [^3H]-acetyl histone and 1 mM PMSF in HDAC Assay Buffer (Upstate). Released [^3H]-acetate was extracted with ethyl acetate (31) and counted on a Beckman LS3801 scintillation counter.

Substance: PBEF: 52-55 kD protein, rate-limiting enzyme for NAD+ biosynthesis from nicotinamide; tested by retroviral cDNA overexpression in cells
- cell lifespan extension [1]: also seen
- senescence-free survival (Kaplan-Meier) vs vector-infected cells (HITC6 SMCs; PBEF-overexpressing SMCs, p<0.0001): markedly extended
- reduction in senescent SMCs (HITC6 SMCs; late-passage (37th) PBEF-overexpressing SMCs, p=0.003): 19±2%
- proportion of apoptotic SMC's relative to HITB5-EGFP SMC's (HITB5 SMC's): approximately half
- proportion of microvessels invested by one or more human SMC's [2]: 17.8±2.5%
- total HDAC activity vs HITC6-Vector SMC's (HDAC): significantly greater
